Results on three compounds are retold here after patent US20240400508A1, “ALKYL-SUBSTITUTED DERIVATIVES OF […] ME[…] […] USES THEREOF” (Sensorium Therapeutics, Inc., priority 2022, published 2024).

One data set deals with T1, SERT (Homo sapiens, UniProt P31645).
T1 construct: expressed in transfected cells
The data set can be described thus: SERT inhibition assay (Neurotransmitter Transportation Fluorescence assay). The class given is cell-based. The following applies: stable 5HTT cells, assay of Example B1. The procedure:
SERT inhibition was measured using a Neruotransmitter Transportation Fluorescence assay. Briefly, stable SHTT cells were prepared in a 384 microwell plate. Compounds were prepared in assay buffer (20 mM HEPES in HBSS, 0.1% BSA). The compounds were added to the plated cells and incubated for 30 minutes at 37° C. 25 μL of dye solution (Molecular Devices Neurotransmitter Transporter Uptake Assay Kit) was added per well and incubated for 30 minutes at 37° C. The plates were then read on a plate reader.

The target of a further data set is T2, PDE4A1A (Homo sapiens, UniProt P27815).
T2 construct: purchased BPS Bioscience
The data set can be described thus: Recombinant PDE4 isoform inhibition assay (BPS Bioscience kit, fluorescence polarization). It counts as biochemical. The procedure: (§1) Recombinant PDE assay inhibition can be measured according to the BPS Bioscience PDE4 assay kit, as described below.
(§2) • 1) Dilute 20 μM FAM-Cyclic-3′, 5′-AMP stock 100-fold with PDE buffer to make a 200 nM
(§3) • 2) Add 25 μl of FAM-Cyclic-3′,5′-AMP (200 nM) to each well designated “Positive Control”, “Test Inhibitor”, and “Substrate Control”. • 3) Add 20 μl of PDE assay buffer to each well designated “Substrate Control” and 45 μl of PDE assay buffer to each well designated “Blank”. • 4) Add 5 μl of inhibitor solution to each well designated “Test Inhibitor”. For the wells labeled “Positive Control”, “Substrate Control” and “Blank”, add 5 μl of the same solution without inhibitor (inhibitor buffer). • 5) Thaw PDE on ice. Upon first thaw, briefly spin tube containing enzyme to recover the full contents of the tube. • 6) Dilute PDE4 in PDE buffer to 7.5 pg/μl (0.15 ng/reaction)*. Initiate reaction by adding 20 μl of PDE4 (7.5 pg/μl) to the wells designated “Positive Control” and “Test Inhibitor.” • 7) Incubate at room temperature for 1 hour.
(§4) • 1) Mix binding agent thoroughly and dilute binding agent 1:100 with binding agent diluent. • 2) Add 100 μl diluted binding agent to each microwell. Incubate at room temperature for 1 hour with slow shaking. • 3) Read the fluorescent polarization of the sample in a microtiter-plate reader equipped for the measurement of fluorescence polarization, capable of excitation at wavelengths ranging from 485±5 nm and detection of emitted light ranging from 528±10 nm. Blank value is subtracted from all other values.
For orientation: Fluorescence polarisation rises when a labelled molecule tumbles more slowly, as on binding a larger partner.

The target of a further data set is T3, PDE4B2 (Homo sapiens, UniProt Q07343).
T3 construct: purchased BPS Bioscience
The description is as above. The class given is biochemical. The procedure: as §1, §2, §3, §4

A further data set addresses T4, PDE4C1 (Homo sapiens, UniProt Q08493).
T4 construct: purchased BPS Bioscience
Described as above. It counts as biochemical. The procedure:
as §1, §2, §3, §4

In a further data set the target is T5, PDE4D2 (Homo sapiens, UniProt Q08499).
T5 construct: purchased BPS Bioscience
Described as above. The class given is biochemical. As to the method: as §1, §2, §3, §4

For data set [1] the following is noted: cited from earlier work.

One may read the IC50 as the point on the concentration scale where inhibition reaches its midpoint. Low values mean higher potency, high ones lower potency. By inhibition is commonly meant the share of the control response that was lost under treatment.

T2 sequence (P27815 1-647 isoform P27815-4): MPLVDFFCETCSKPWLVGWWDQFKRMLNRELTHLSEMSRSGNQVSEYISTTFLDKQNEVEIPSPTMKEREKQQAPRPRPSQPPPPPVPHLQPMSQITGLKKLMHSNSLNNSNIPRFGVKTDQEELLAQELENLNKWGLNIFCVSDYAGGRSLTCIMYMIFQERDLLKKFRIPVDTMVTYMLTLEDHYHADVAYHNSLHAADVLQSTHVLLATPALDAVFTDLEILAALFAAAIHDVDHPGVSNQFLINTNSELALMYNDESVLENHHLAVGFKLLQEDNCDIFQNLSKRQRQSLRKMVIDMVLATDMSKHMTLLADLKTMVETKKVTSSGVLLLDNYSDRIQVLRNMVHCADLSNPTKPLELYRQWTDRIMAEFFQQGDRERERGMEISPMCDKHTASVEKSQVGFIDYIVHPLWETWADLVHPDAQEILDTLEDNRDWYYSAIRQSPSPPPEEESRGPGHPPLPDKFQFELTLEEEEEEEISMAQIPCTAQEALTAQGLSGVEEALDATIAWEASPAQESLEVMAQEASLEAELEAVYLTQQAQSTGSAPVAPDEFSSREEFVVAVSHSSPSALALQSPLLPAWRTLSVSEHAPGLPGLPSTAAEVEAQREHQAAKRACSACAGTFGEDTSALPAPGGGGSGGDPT
T4 sequence (Q08493 whole entry): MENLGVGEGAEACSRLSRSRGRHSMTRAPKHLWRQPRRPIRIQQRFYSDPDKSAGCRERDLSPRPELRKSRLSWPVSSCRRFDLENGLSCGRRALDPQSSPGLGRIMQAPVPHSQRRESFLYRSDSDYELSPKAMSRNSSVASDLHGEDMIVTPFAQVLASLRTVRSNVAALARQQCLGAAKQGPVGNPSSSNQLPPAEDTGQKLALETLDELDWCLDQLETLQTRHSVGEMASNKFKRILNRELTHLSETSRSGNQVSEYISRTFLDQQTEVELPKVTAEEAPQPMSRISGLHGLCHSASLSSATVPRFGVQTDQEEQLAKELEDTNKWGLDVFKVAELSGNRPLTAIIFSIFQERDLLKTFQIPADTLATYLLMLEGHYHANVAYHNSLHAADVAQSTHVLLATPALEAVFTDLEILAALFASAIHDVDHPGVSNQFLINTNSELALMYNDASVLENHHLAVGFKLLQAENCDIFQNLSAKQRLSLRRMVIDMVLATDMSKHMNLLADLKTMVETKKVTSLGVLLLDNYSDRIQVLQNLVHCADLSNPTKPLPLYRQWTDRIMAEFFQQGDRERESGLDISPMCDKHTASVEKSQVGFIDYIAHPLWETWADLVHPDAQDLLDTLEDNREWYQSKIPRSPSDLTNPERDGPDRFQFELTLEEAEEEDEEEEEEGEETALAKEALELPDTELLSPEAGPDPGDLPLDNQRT
T1 sequence (P31645 whole entry, species assumed): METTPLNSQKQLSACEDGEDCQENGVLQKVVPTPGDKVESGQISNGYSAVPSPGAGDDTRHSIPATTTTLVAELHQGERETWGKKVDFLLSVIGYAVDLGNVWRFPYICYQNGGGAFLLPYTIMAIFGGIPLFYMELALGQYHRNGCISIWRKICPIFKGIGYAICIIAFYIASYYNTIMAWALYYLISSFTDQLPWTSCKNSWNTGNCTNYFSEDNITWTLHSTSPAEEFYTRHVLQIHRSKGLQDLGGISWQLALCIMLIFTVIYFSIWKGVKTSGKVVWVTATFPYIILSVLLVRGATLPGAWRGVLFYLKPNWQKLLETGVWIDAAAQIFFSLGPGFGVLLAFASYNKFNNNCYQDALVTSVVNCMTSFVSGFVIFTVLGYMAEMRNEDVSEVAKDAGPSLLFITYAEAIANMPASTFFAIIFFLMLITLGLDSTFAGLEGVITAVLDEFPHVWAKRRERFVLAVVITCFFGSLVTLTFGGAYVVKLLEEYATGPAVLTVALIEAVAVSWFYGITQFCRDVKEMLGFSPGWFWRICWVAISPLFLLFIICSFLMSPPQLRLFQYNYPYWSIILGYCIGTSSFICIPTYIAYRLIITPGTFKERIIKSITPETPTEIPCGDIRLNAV
T5 sequence (Q08499 303-809 limits assumed): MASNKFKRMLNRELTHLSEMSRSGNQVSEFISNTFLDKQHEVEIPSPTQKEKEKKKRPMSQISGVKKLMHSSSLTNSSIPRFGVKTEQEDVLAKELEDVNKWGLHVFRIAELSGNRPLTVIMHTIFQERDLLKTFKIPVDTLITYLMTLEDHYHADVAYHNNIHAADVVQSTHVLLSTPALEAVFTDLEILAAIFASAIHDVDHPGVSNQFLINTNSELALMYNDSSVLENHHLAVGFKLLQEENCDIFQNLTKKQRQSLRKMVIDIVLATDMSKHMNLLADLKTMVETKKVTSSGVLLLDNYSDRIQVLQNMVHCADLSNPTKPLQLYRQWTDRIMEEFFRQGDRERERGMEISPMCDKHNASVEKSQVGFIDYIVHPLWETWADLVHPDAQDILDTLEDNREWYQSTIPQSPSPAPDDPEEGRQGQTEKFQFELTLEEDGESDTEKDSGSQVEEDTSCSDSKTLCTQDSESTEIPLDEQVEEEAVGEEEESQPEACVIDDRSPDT
T3 sequence (Q07343 1-564 isoform Q07343-2): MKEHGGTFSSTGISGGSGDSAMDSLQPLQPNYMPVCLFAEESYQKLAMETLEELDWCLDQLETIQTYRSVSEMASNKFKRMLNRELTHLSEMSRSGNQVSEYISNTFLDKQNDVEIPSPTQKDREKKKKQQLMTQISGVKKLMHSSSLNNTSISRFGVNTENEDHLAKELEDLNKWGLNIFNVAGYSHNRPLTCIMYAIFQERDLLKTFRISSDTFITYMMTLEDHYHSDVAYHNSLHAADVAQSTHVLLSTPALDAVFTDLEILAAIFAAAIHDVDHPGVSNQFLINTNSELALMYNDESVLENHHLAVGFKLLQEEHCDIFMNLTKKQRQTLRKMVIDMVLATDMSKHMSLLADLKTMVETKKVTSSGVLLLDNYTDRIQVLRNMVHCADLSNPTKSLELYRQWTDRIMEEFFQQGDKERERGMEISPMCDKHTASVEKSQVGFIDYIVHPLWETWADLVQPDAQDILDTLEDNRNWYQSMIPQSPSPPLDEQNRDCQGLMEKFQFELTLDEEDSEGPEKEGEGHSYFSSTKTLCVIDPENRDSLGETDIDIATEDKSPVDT

Turning to `COc1ccc([C@]23CCN(C)[C@H]2CC(=O)C[C@H]3C)cc1OC` (single isomer, unassigned) [Compound 102], on SERT, the IC50 was less than 250 nM. In addition, the inhibition at 10 µM at PDE4A1A, on PDE4B2, at PDE4C1 and at PDE4D2 was less than 20% each time.

As to `COc1ccc([C@@]23CCN(C)[C@@H]2CC(=O)C[C@@H]3C)cc1OC` (single isomer, unassigned) [Compound 103], the 50% inhibitory concentration (IC50) against SERT is less than 250 nM. Further, the inhibition at 10 µM on PDE4A1A, at PDE4B2, at PDE4C1 and at PDE4D2 was less than 20% in each case.

With `COc1ccc([C@@]23CCC(=O)C[C@@H]2N(C)CC3)cc1OC` [(−) mesembrine], the half-life in plasma result in data set [1] is “less than 2 hours”.
